Laboratory results taken from patent US11104674B2 (Hoffmann-La Roche Inc., priority 2016, dated 2021).

What follows are compounds tested on HBsAg (assay: HBsAg assay (chemiluminescence immunoassay of secreted HBsAg)). Details: HBsAg secretion, HepG2.2.15 cells, CLIA of culture supernatant.
Type: cell-based, HBV
Protocol: HepG2.2.15 cells (Acs et al. Proc Natl Acad Sci USA, 84, (1987), 4641-4), a constitutively HBV-expressing cell line were cultured in DMEM+Glutamax-I medium (Invitrogen, Carlsbad, Calif., USA), supplemented with 10% fetal bovine serum (Invitrogen) and G418 (Invitrogen) at a final concentration of 200 mg/L and maintained in 5% CO2 at 37° C.
HepG2.2.15 cells were seeded in duplicate into white, 96-well plates at 1.5×10^4 cells/well. The cells were treated with a three-fold serial dilution series of the compounds in DMSO. The final DMSO concentration in all wells was 1% and DMSO was used as no drug control.
The HBsAg chemiluminescence immunoassay (CLIA) kit (Autobio Diagnostics Co., Zhengzhou, China, Catalog number: CL0310-2) was used to measure the levels of secreted HBV antigens semi-quantitatively. For the detection 50 μL/well culture supernatant was used and HBsAg was quantified using HBsAg chemiluminescence immunoassay (CLIA) kit (Autobio Diagnostics Co., Zhengzhou, China, Catalog number: CL0310-2), 50 μL of the supernatant was transferred to the CLIA assay plate and 50 μL of enzyme conjugate reagent was added into each well. The plates were sealed and gently agitated for 1 hour at room temperature. The supernatant-enzyme-mixture was discarded and wells were washed 6 times with 300 μL of PBS.
The residual liquid was removed by plating the CLIA plate right side down on absorbent tissue paper. 25 μL of substrates A and B were added to each well. Luminance was measured using a luminometer (Mithras LB 940 Multimode Microplate Reader) after 10 minutes incubation. Dose-response curves were generated and the IC50 value was extrapolated by using the E-WorkBook Suite (ID Business Solutions Ltd., Guildford, UK). The IC50 was defined as the compound concentration (or conditioned media log dilution) at which HBsAg secretion was reduced by 50% compared to the no drug control.
The compounds according to formula I were tested for their capacity to inhibit HBsAg as described herein.

Q: Which IC50 does the source give for `CC1c2cnc(-c3ncccn3)nc2CCN1c1cc(N2CCN(S(C)(=O)=O)CC2)cc(F)n1` (single isomer, unassigned) [Example 98, (+)-6-[6-Fluoro-4-(4-methylsulfonylpiperazin-1-yl)-2-pyridyl]-5-methyl-2-pyrimidin-2-yl-7,8-dihydro-5H-pyrido[4,3-d]pyrimidine] here?
A: 410 nM

Same assay, conditions: Hepatitis B virus, HepG2.2.15, HBsAg secretion, HepG2.2.15 cells, CLIA of culture supernatant

Q: `CC1c2cnc(-c3ncccn3)nc2CCN1c1cc(NCCCCCC(=O)O)cc(F)n1` (stereo not shown) [Example 1, 6-[[2-fluoro-6-(5-methyl-2-pyrimidin-2-yl-7,8-dihydro-5H-pyrido[4,3-d]pyrimidin-6-yl)-4-pyridyl]amino]hexanoic acid] was tested. Which IC50 did it give?
A: 1500 nM

Q: How did the IC50 turn out when `CC1c2cnc(-c3ncccn3)nc2CCN1c1cc(F)cc(NCCCCCC(=O)O)n1` (stereo not shown) [Example 2, 6-[[4-fluoro-6-(5-methyl-2-pyrimidin-2-yl-7,8-dihydro-5H-pyrido[4,3-d]pyrimidin-6-yl)-2-pyridyl]amino]hexanoic acid] was run?
A: 155 nM

Q: Which IC50 does the source give for `CC1c2cnc(-c3ncccn3)nc2CCN1c1cc(NC(=O)CO)cc(F)n1` (stereo not shown) [Example 3, N-[2-Fluoro-6-(5-methyl-2-pyrimidin-2-yl-7,8-dihydro-5H-pyrido[4,3-d]pyrimidin-6-yl)-4-pyridyl]-2-hydroxy-acetamide] here?
A: 60 nM

Q: For `CC1CN(c2cc(F)nc(N3CCc4nc(-c5ncccn5)ncc4C3C)c2)CCO1` (stereo not shown) [Example 4, 4-[2-fluoro-6-(5-methyl-2-pyrimidin-2-yl-7,8-dihydro-5H-pyrido[4,3-d]pyrimidin-6-yl)-4-pyridyl]-2-methyl-morpholine], which IC50 is on record?
A: 8 nM

Q: With `CC1CN(c2cc(F)cc(N3CCc4nc(-c5ncccn5)ncc4C3C)n2)CCO1` (stereo not shown) [Example 5, 4-[4-fluoro-6-(5-methyl-2-pyrimidin-2-yl-7,8-dihydro-5H-pyrido[4,3-d]pyrimidin-6-yl)-2-pyridyl]-2-methyl-morpholine] as the compound, how does the IC50 read?
A: 20 nM

Q: Which IC50 does the source give for `CCC1CN(c2cc(F)nc(N3CCc4nc(-c5ncccn5)ncc4C3C)c2)CCO1` (stereo not shown) [Example 6, 2-ethyl-4-[2-fluoro-6-(5-methyl-2-pyrimidin-2-yl-7,8-dihydro-5H-pyrido[4,3-d]pyrimidin-6-yl)-4-pyridyl]morpholine] here?
A: 9 nM

Q: With `CCC1CN(c2cc(F)cc(N3CCc4nc(-c5ncccn5)ncc4C3C)n2)CCO1` (stereo not shown) [Example 7, 2-ethyl-4-[4-fluoro-6-(5-methyl-2-pyrimidin-2-yl-7,8-dihydro-5H-pyrido[4,3-d]pyrimidin-6-yl)-2-pyridyl]morpholine] as the compound, how does the IC50 read?
A: 42 nM

Q: How did the IC50 turn out when `CC1c2cnc(-c3ncccn3)nc2CCN1c1cc(N2CCOC(C)(C)C2)cc(F)n1` (stereo not shown) [Example 8, 4-[2-fluoro-6-(5-methyl-2-pyrimidin-2-yl-7,8-dihydro-5H-pyrido[4,3-d]pyrimidin-6-yl)-4-pyridyl]-2,2-dimethyl-morpholine] was run?
A: 11 nM

Q: Which IC50 does the source give for `CC1c2cnc(-c3ncccn3)nc2CCN1c1cc(F)cc(N2CCOC(C)(C)C2)n1` (stereo not shown) [Example 9, 4-[4-fluoro-6-(5-methyl-2-pyrimidin-2-yl-7,8-dihydro-5H-pyrido[4,3-d]pyrimidin-6-yl)-2-pyridyl]-2,2-dimethyl-morpholine] here?
A: 29 nM

Q: With `CC1c2cnc(-c3ncccn3)nc2CCN1c1cc(N2C3CCC2COC3)cc(F)n1` (stereo not shown) [Example 10, 8-[2-fluoro-6-(5-methyl-2-pyrimidin-2-yl-7,8-dihydro-5H-pyrido[4,3-d]pyrimidin-6-yl)-4-pyridyl]-3-oxa-8-azabicyclo[3.2.1]octane] as the compound, how does the IC50 read?
A: 39 nM

Q: How did the IC50 turn out when `CC1c2cnc(-c3ncccn3)nc2CCN1c1cc(F)cc(N2C3CCC2COC3)n1` (stereo not shown) [Example 11, 8-[4-fluoro-6-(5-methyl-2-pyrimidin-2-yl-7,8-dihydro-5H-pyrido[4,3-d]pyrimidin-6-yl)-2-pyridyl]-3-oxa-8-azabicyclo[3.2.1]octane] was run?
A: 188 nM

Q: `CC1c2cnc(-c3ncccn3)nc2CCN1c1cc(N2CCC3(CCOC3)C2)cc(F)n1` (stereo not shown) [Example 12, 7-[2-fluoro-6-(5-methyl-2-pyrimidin-2-yl-7,8-dihydro-5H-pyrido[4,3-d]pyrimidin-6-yl)-4-pyridyl]-2-oxa-7-azaspiro[4.4]nonane] was tested. Which IC50 did it give?
A: 8 nM

Q: `COCC1CN(c2cc(F)nc(N3CCc4nc(-c5ncccn5)ncc4C3C)c2)CCO1` (stereo not shown) [Example 14, 4-[2-fluoro-6-(5-methyl-2-pyrimidin-2-yl-7,8-dihydro-5H-pyrido[4,3-d]pyrimidin-6-yl)-4-pyridyl]-2-(methoxymethyl)morpholine] was tested. Which IC50 did it give?
A: 17 nM

Q: With `COCC1CN(c2cc(F)cc(N3CCc4nc(-c5ncccn5)ncc4C3C)n2)CCO1` (stereo not shown) [Example 15, 4-[4-fluoro-6-(5-methyl-2-pyrimidin-2-yl-7,8-dihydro-5H-pyrido[4,3-d]pyrimidin-6-yl)-2-pyridyl]-2-(methoxymethyl)morpholine] as the compound, how does the IC50 read?
A: 30 nM

Q: `CC(=O)N1CCN(c2cc(F)nc(N3CCc4nc(-c5ncccn5)ncc4C3C)c2)CC1` (stereo not shown) [Example 16, 1-[4-[2-fluoro-6-(5-methyl-2-pyrimidin-2-yl-7,8-dihydro-5H-pyrido[4,3-d]pyrimidin-6-yl)-4-pyridyl]piperazin-1-yl]ethanone] was tested. Which IC50 did it give?
A: 14 nM

Q: `CC(=O)N1CCN(c2cc(F)cc(N3CCc4nc(-c5ncccn5)ncc4C3C)n2)CC1` (stereo not shown) [Example 17, 1-[4-[4-fluoro-6-(5-methyl-2-pyrimidin-2-yl-7,8-dihydro-5H-pyrido[4,3-d]pyrimidin-6-yl)-2-pyridyl]piperazin-1-yl]ethanone] was tested. Which IC50 did it give?
A: 15 nM

Q: With `CC1CCN(c2cc(F)nc(N3CCc4nc(-c5ncccn5)ncc4C3C)c2)C1` (stereo not shown) [Example 18, 6-[6-fluoro-4-(3-methylpyrrolidin-1-yl)-2-pyridyl]-5-methyl-2-pyrimidin-2-yl-7,8-dihydro-5H-pyrido[4,3-d]pyrimidine] as the compound, how does the IC50 read?
A: 3 nM

Q: How did the IC50 turn out when `CC1CCN(c2cc(F)cc(N3CCc4nc(-c5ncccn5)ncc4C3C)n2)C1` (stereo not shown) [Example 19, 6-[4-fluoro-6-(3-methylpyrrolidin-1-yl)-2-pyridyl]-5-methyl-2-pyrimidin-2-yl-7,8-dihydro-5H-pyrido[4,3-d]pyrimidine] was run?
A: 11 nM

Q: `COC1CCN(c2cc(F)cc(N3CCc4nc(-c5ncccn5)ncc4C3C)n2)C1` (stereo not shown) [Example 21, 6-[4-fluoro-6-(3-methoxypyrrolidin-1-yl)-2-pyridyl]-5-methyl-2-pyrimidin-2-yl-7,8-dihydro-5H-pyrido[4,3-d]pyrimidine] was tested. Which IC50 did it give?
A: 13 nM

Q: For `CC1c2cnc(-c3ncccn3)nc2CCN1c1cc(N2CCC(F)(F)C2)cc(F)n1` (stereo not shown) [Example 22, 6-[4-(3,3-difluoropyrrolidin-1-yl)-6-fluoro-2-pyridyl]-5-methyl-2-pyrimidin-2-yl-7,8-dihydro-5H-pyrido[4,3-d]pyrimidine], which IC50 is on record?
A: 4 nM

Q: How did the IC50 turn out when `CC1c2cnc(-c3ncccn3)nc2CCN1c1cc(F)cc(N2CCC(F)(F)C2)n1` (stereo not shown) [Example 23, 6-[6-(3,3-difluoropyrrolidin-1-yl)-4-fluoro-2-pyridyl]-5-methyl-2-pyrimidin-2-yl-7,8-dihydro-5H-pyrido[4,3-d]pyrimidine] was run?
A: 5 nM

Q: For `CC1c2cnc(-c3ncccn3)nc2CCN1c1cc(N2CCOC(CO)C2)cc(F)n1` (stereo not shown) [Example 24, [4-[2-fluoro-6-(5-methyl-2-pyrimidin-2-yl-7,8-dihydro-5H-pyrido[4,3-d]pyrimidin-6-yl)-4-pyridyl]morpholin-2-yl]methanol], which IC50 is on record?
A: 38 nM

Q: How did the IC50 turn out when `CC1c2cnc(-c3ncccn3)nc2CCN1c1cc(F)cc(N2CCOC(CO)C2)n1` (stereo not shown) [Example 25, [4-[4-fluoro-6-(5-methyl-2-pyrimidin-2-yl-7,8-dihydro-5H-pyrido[4,3-d]pyrimidin-6-yl)-2-pyridyl]morpholin-2-yl]methanol] was run?
A: 46 nM

Q: For `CC1c2cnc(-c3ncccn3)nc2CCN1c1cc(N2CCOC(C(=O)O)C2)cc(F)n1` (stereo not shown) [Example 26, 4-[2-fluoro-6-(5-methyl-2-pyrimidin-2-yl-7,8-dihydro-5H-pyrido[4,3-d]pyrimidin-6-yl)-4-pyridyl]morpholine-2-carboxylic acid], which IC50 is on record?
A: 2320 nM

Q: For `CC1c2cnc(-c3ncccn3)nc2CCN1c1cc(F)cc(N2CCOC(C(=O)O)C2)n1` (stereo not shown) [Example 27, 4-[4-fluoro-6-(5-methyl-2-pyrimidin-2-yl-7,8-dihydro-5H-pyrido[4,3-d]pyrimidin-6-yl)-2-pyridyl]morpholine-2-carboxylic acid], which IC50 is on record?
A: 3760 nM

Q: How did the IC50 turn out when `CC1c2cnc(-c3ncccn3)nc2CCN1c1cc(N2CCOC(CC(=O)O)C2)cc(F)n1` (stereo not shown) [Example 28, 2-[4-[2-fluoro-6-(5-methyl-2-pyrimidin-2-yl-7,8-dihydro-5H-pyrido[4,3-d]pyrimidin-6-yl)-4-pyridyl]morpholin-2-yl]acetic acid] was run?
A: 1820 nM

Q: `CC1c2cnc(-c3ncccn3)nc2CCN1c1cc(F)cc(N2CCOC(CC(=O)O)C2)n1` (stereo not shown) [Example 29, 2-[4-[4-fluoro-6-(5-methyl-2-pyrimidin-2-yl-7,8-dihydro-5H-pyrido[4,3-d]pyrimidin-6-yl)-2-pyridyl]morpholin-2-yl]acetic acid] was tested. Which IC50 did it give?
A: 722 nM
